From PMC5848141, “A Pyridazine-Based Fluorescent Probe Targeting Aβ Plaques in Alzheimer's Disease” (Journal of Analytical Methods in Chemistry, 2018)

Biological target: T1, β-amyloid Aβ42 (aggregates) (Homo sapiens, UniProt P05067)
T1 construct: gene APP; synthetic Aβ42 peptide, aggregated (fibrils)
Assay: fluorescence saturation titration of probe with […] aggregated Aβ[…] in PBS
Assay type: binding
Details: read-out: Probe 3

T1 sequence (P05067 672-713 limits assumed): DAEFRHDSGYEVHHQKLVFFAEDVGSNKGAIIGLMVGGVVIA

Kd: 350 ± 30 nM
SMILES: CN(C)c1ccc(/C=C/n2ncc3c(c2=O)Oc2ccc(C=C(C#N)C(=O)O)cc2O3)cc1 [compound 3, probe 3]
